# Laboratory results from patent US20240115564A1, “HTR1F ANTAGONISTS FOR IMPROVEMENT OF BETA CELL SURVIVAL AND FUNCTION” (The Regents of the University of California, priority 2021, published 2024).
# How the values were obtained:
# HTR1F [1] = biological target: T1, HTR1F (Homo sapiens, UniProt P30939); experiment: Glosensor cAMP assay in 293T cells transfected with HTR1F cDNA; type: cell-based; set-up: from tissue; host or cells: primary human islets from cadaveric donors, transplanted under the kidney capsule of scid-beige mice; conditions: 10 minutes pre-treatment, serotonin 5 nM then forskolin
# T1 sequence (P30939 1-366): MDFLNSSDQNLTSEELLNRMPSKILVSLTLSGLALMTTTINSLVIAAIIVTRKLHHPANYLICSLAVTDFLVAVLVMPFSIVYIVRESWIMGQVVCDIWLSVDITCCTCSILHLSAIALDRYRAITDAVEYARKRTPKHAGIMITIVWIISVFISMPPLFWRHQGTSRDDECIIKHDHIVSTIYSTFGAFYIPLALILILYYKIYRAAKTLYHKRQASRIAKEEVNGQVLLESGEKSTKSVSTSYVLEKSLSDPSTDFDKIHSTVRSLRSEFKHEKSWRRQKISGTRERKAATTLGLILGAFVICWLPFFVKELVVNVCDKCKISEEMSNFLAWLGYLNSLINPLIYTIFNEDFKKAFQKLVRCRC
# Description: 293T cells were transiently transfected with the Glosensor plasmid (Promega) and the HTR1F cDNA. The cells were pre-treated with 1-(2-hydroxy-3-(naphthalen-2-yloxy)propyl)-4-(quinolin-3-yl)piperidin-4-ol at the concentrations shown in FIG. 4 for 10 minutes, then with serotonin (5 nM), and then forskolin and luminescence was determined. n=5, error bars show standard error. […] N=5 per concentration.
# human islets = experiment: Glucose-stimulated insulin release in human islets; type: cell-based; conditions: 150 nM, 11 mM glucose, 9 human islet donors, vs DMSO
# Description: Human islets were rested for 24 hours after receipt in CMRL 1066 (Media Tech) supplemented with penicillin and streptomycin, B27 supplement, Glutamax (Thermo), and non-essential amino acids (Thermo). For both the test treatment group and the control treatment group, 40-60 islets for each of the 5 replicates were hand-picked. The islets were equilibrated for two hours at 37° C. in Kreb-Ringer Bicarbonate HEPES Buffer pH 7.4 (KRBH; 137 mM NaCl, 4.7 mM KCl, 1.2 mM KH2PO4, 1.2 mM MgSO4, 2.5 mM CaCl2), 25 mM NaHCO3, 20 mM HEPES, 2.8 mM glucose, and 0.25% BSA). Equilibration buffer was then removed and islets were incubated at 37° C. with KRBH pH 7.4 with 2.8 mM glucose and 0.25% BSA and were treated with DMSO or 150 nM HTR1F antagonist 1-(2-hydroxy-3-(naphthalen-2-yloxy)propyl)-4-(quinolin-3-yl)piperidin-4-ol. After 1 hour, islet secretion was collected and islets were treated with KRBH pH 7.4 containing 11 mM glucose and 0.25% BSA and were treated with DMSO or 150 nM antagonist at 37° C. for another hour. Following incubation, islet secretions were collected and the islets were lysed in RIPA buffer to determine the total islet insulin content. Islet secretions were diluted 2-5 fold for analysis with the Mercodia insulin ELISA kit and lysates were diluted 200-500 fold for analysis. […]
# HTR1F [2] = biological target: T1, HTR1F; conditions: read-out: reported EC50; cited from earlier work
# primary human islet cell = experiment: Sytox Green cell death assay in dissociated human islets treated with HTR1F agonist; type: cell-based; conditions: 24 hours, two independent donors
# Description: Dissociated human islets were treated with the indicated doses of LY344864 for 24 hours. Dead cells were monitored by Sytox Green. The number of Sytox Green nuclei were normalized to cell density measured by bright field imaging. n=4 biological replicates for each donor. *p<0.05, **p<0.01 by post-hoc Student's t-test after one-way ANOVA versus vehicle treatment.
# (§1) Human beta cell death and proliferation: Islets were dissociated and plated on 804G coated plates as done for the screens. For Sytox Green assays, islets were plated into 96 well plates and Sytox Green (Thermo) was added to the media (30 nM) and green fluorescence and bright field images were captured at 24 hours during culture (Incucyte). The number of green nuclei normalized to the cell density (calculated by brightfield image) was measured in biological triplicate (FIG. 2A). For FIG. 3C, dead nuclei were normalized to total nuclei as measured after treatment of the cells with 0.0625% Triton X-100. For the in vitro TUNEL assay (FIG. 2B and FIG. 2C), cells were fixed in 4% paraformaldehyde in calcium/magnesium free PBS for 15 minutes at room temperature, permeabilized with 0.1% Triton X-100 for 1 hour, blocked with 10% donkey serum in PBS for 1 hour at room temperature, and stained with guinea pig anti-insulin antibody (Agilent) overnight at 4 degrees. […]
# [3] = biological target: other serotonin family GPCRs and adrenergic receptors; conditions: cited from earlier work
# other HTR1 receptors = conditions: cited from earlier work
# primary human beta cells = experiment: TUNEL / insulin staining of dissociated human islets (beta cell death); type: cell-based; conditions: at 10 nM, 24 hours, 4 donors
# Description: A representative image is shown. White arrows represent cells that are TUNEL+ insulin+ cells. Scale bar is 25 μM.
# Given differences in baseline cell death between donors, the fold increase in the fraction of TUNEL+ beta cells over vehicle control is plotted. Standard error is shown, n=4 donors with at least 400 beta cells counted for each donor. *p<0.05, one-way ANOVA, post-hoc tested against vehicle.
# as §1
# HTR1F [4] = biological target: T1, HTR1F; conditions: cited from earlier work
# [5] = test system: scd beige mice receiving human islets; experiment: Minimal (marginal mass) human islet transplant model with methysergide; type: in vivo, mouse; conditions: islets 300 nM 24 hours; mice 10 mg/kg daily peri-transplant, 5 days; p<0.05 log-rank
# Description: Taken together, FIGS. 3A-3D illustrate the prevention of human beta cell death by blocking of HTR1F signaling.
# Minimal human islet transplant model with methysergide: Human islets were treated with 300 nM methysergide maleate or vehicle for 24 hours after isolation. Seven-hundred IEq were then transplanted under the kidney capsule of scd beige mice. Four hours prior to transplant, recipient mice were injected with either 10 mg/kg methysergide maleate or vehicle. After transplant, mice were injected every 24 hours with 10 mg/kg methysergide or vehicle for 5 days. After 48 hours without methysergide treatment to allow washout of the drug, streptozotocin (250 mg/kg) was injected into the peritoneal space with 1 mL of normal saline injected subcutaneously for hydration. […] Blood glucose was assessed by glucometer (Freestyle Lite) after a 6 hour fast (9 am-3 pm). […]
# To ask if improved human beta cell survival due to HTR1F inhibition could improve glycemia after transplant, human islets were treated with methysergide or vehicle and then a marginal mass of islets was transplanted into mice. […] After 2 days to allow for methysergide clearance, the endogenous mouse beta cells were destroyed using streptozotocin and monitored for diabetes development. […]
# [6] = cited from earlier work
# dissociated human islets = experiment: Sytox Green cell death in dissociated human islets with thapsigargan and methysergide; type: cell-based; conditions: 48 hours
# Description: Each graph is from an independent donor. *p<0.05 for thapsigargan and for the interaction between methysergide and thapsigargan by 2-way ANOVA. Standard error is shown.
# as §1, with “degrees. Secondary antibody was anti-guinea pig 488 (Thermo) at 1:300 for 1 hour at room temperature. For TUNEL staining, In Situ Death Detection Kit, TMR red (Roche) was used per the manufacturer's protocol in combination with insulin staining as above.” for “degrees.”
# [7] = test system: MIN6 cells transfected with GFP-T2A-HTR1F; experiment: MIN6 cell death after HTR1F expression (propidium iodide); type: cell-based, mouse; conditions: 200 ng/mL pre-incubation, 32-40 hours after transfection
# Description: GFP+ cells were assessed for cell death by propidium iodide staining 32-40 hours after transfection. […] Significant post-hoc Holm adjusted Student's t-test comparisons are shown. n=33 for each group conducted over 3 independent experiments. Taken together, FIGS. 2A-2D illustrate the induction of primary human beta cell death by HTR1F signaling.
# MIN6 cell death: The human HTR1F cDNA was cloned from 293T cDNA and cloned downstream of a CMV promoter GFP-T2A expression vector with the addition of a viral signal sequence and FLAG epitope tag as previously described. The sequence was confirmed by Sanger sequencing. 10,000 MIN6 cells were plated in a 96-well plate. The following day, the cells were transfected with either the parental GFP-T2A expression vector or GFP-T2A-HTR1F using Lipofectamine 2000 (Thermo Fisher). Six hours after transfection, the media was changed to one containing propidium iodide (Thermo Fisher) at 0.3 ug/mL. The percentage of GFP+ cells that were also PI+ was measured by automated fluorescence microscopy (IncuCyte, Essen Biosciences) at 32-40 hours after transfection. For pertussis toxin (Enzo), cells were treated with 200 ng/mL during cell plating and during transfection.
compound,measurement,setting,value
OC(COc1ccc2ccccc2c1)CN1CCC(O)(c2cnc3ccccc3c2)CC1 (centres unmarked) [1-(2-hydroxy-3-(naphthalen-2-yloxy)propyl)-4-(quinolin-3-yl)piperidin-4-ol],inhibition of HTR1F (cAMP luminescence),HTR1F [1],inhibition of HTR1F
same,increase in insulin secretion at high glucose concentration,human islets,40%
CN(C)[C@@H]1CCc2[nH]c3ccc(NC(=O)c4ccc(F)cc4)cc3c2C1 [LY344864],EC50,HTR1F [2],3 nM
same,primary human islet cell death (Sytox Green),primary human islet cell,increase primary human islet cell death
same,Ki,[3],1500 to 5000 nM
same,Ki,other HTR1 receptors,> 500 nM
same,beta cell death (TUNEL+ insulin+ cells),primary human beta cells,increase beta cell death
"CC[C@@H](CO)NC(=O)[C@@H]1C=C2c3cccc4c3c(cn4C)C[C@H]2N(C)C1 [methysergide, (6aR,9R)—N—((S)-1-hydroxybutan-2-yl)-4,7-dimethyl-4,6,6a,7,8,9-hexahydroindolo[4,3-fg]quinoline-9-carboxamide]",inhibition of HTR1F,HTR1F [4],potently inhibit
same,diabetes-free survival / development of diabetes after streptozotocin,[5],protect mice from the development of diabetes
same,risk during chronic treatment,[6]; chronic treatment,risk of retroperitoneal fibrosis
same,insulin secretion in humans,[6]; humans,increase insulin secretion
same,effect on death triggered by thapsigargan,dissociated human islets; 30 nM methysergide with 10 μM thapsigargan,prevent death
same,effect of methysergide alone on islet cell death,"dissociated human islets; 30 nM, dissociated cultures",no effect
pertussis toxin,effect on HTR1F-induced cell death,[7],blocked
